From the NIST ThermoML archive (doi:10.1021/je800842z)
± gives the expanded uncertainty stated by the source.

Tests used:
[1] = 293.15 K; 101.33 kPa; Liquid; Pycnometric method
[2] = refractive index (Na D-line) (dimensionless); settings: 293.15 K; 101.33 kPa; Liquid; Standard Abbe refractometry

mass density [1]	refractive index [2]	Compound
879 ± 1 kg/m3	1.5011 ± 0.0004	c1ccccc1 [benzene]
900 ± 1 kg/m3	1.3588 ± 0.0004	CCOC(C)=O [ethyl acetate]

Compound	mass density [1]	refractive index [2]
Cc1ccccc1 [toluene]	866 ± 1 kg/m3	1.4967 ± 0.0004
